target: T1, PPARγ (Homo sapiens, UniProt P37231); experiment: PPARγ ligand binding assay utilizing [3H]-BRL 49653 as the radioligand; settings: concentration required to reduce by 50% the specific binding of [3H]-BRL 49653
T1 construct: made in house
T1 sequence (P37231 1-505): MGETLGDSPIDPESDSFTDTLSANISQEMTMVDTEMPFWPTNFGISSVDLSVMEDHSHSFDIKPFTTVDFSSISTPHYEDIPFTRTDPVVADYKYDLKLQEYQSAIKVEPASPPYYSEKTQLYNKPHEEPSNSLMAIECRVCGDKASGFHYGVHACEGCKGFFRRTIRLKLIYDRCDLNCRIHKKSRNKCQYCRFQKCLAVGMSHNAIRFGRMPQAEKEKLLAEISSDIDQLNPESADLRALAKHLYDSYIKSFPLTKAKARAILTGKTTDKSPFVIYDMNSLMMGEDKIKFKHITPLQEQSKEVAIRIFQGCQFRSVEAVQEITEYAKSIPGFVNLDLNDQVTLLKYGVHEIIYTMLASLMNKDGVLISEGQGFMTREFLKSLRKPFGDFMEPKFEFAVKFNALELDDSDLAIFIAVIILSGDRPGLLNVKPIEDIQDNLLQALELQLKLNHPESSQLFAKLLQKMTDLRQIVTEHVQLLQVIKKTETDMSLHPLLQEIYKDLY
Text: The compounds of the present invention can be evaluated for modulation of the PPARγ receptor using assays such as those described in Jiang, et al., Nature 391:82-86 (1998), Ricote, et al., Nature 391:79-82 (1998) and Lehmann, et al., J. Biol. Chem. 270(12): 12953-12956 (1995). Alternatively, the compounds can be evaluated for their ability to displace radiolabeled BRL 49653 from a PPARγ-GST fusion protein as follows:
PPARγ-GST fusion protein (prepared according to standard procedures), [^3H]—BRL 49653 having 50 Ci/mmol specific activity, Polyfiltronics Unifilter 350 filtration plate and glutathione-Sepharose® beads (from Pharmacia: washed twice with 10× binding buffer in which BSA and DTI can be left out).
Binding buffer (10 mM Tris-HCl, pH 8.0, 50 mM KCI, 10 mM DTT, 0.02% BSA and 0.01% NP-40) is added in 80-μL amounts to the wells of the filtration plate. The test compound is then added in 10 μL of DMSO. The PPARγ-GST fusion protein and radiolabeled BRL compound are premixed in binding buffer containing 10 mM DTT and added in 10-μL amounts to the wells of the plate to provide final concentrations of 1 μg/well of PPARγ-GST fusion protein and 10 nM [^3H]—BRL 49653 compound. The plate is incubated for 15 min. Glutathione-agarose bead is added in 50 μL of binding buffer, and the plate is vigorously shaken for one hour. The plate is washed four times with 200 μL/well of binding buffer (without BSA and DTT). The bottom of the plate is sealed and 200 μL/well of scintillation cocktail is added. The top of the plate is then sealed and the radioactivity is determined.
IC50 values are defined as the concentration of test compounds required to reduce by 50% the specific binding of [^3H]—BRL 49653 and are represented by (+) <30 μM; (++) <10 μM; (+++) <1 μM.

Question: How did the IC50 turn out when `COc1cccc2sc(Oc3cc(Cl)cc(NS(=O)(=O)c4ccc(Cl)cc4Cl)c3)nc12` [Compound 297, 2,4-Dichloro-N-[3-chloro-5-(4-methoxy-benzothiazol-2-yloxy)-phenyl]-benzenesulfonamide] was run?
Answer: 1 to 10 µM

Question: With `Cc1cc(S(=O)(=O)Nc2cc(Cl)cc(Oc3nc4cc(C#N)ccc4s3)c2)c(Cl)cc1Cl` [Compound 288, 2,4-Dichloro-N-[3-chloro-5-(5-cyano-benzothiazol-2-yloxy)-phenyl]-5-methyl-benzenesulfonamide] as the compound, how does the IC50 read?
Answer: < 1 µM

Question: `O=[N+]([O-])c1ccc2nc(Oc3ccc(NS(=O)(=O)c4ccc(C(F)(F)F)cc4Cl)cc3Cl)sc2c1` [Compound 442, 2-Chloro-N-[3-chloro-4-(6-nitro-benzothiazol-2-yloxy)-phenyl]-4-trifluoromethyl-benzenesulfonamide] was tested. Which IC50 did it give?
Answer: < 1 µM

Question: `CS(=O)(=O)c1ccc2nc(Oc3c(Cl)cc(NS(=O)(=O)c4ccc(C(F)(F)F)cc4Cl)cc3Cl)sc2c1` [Compound 441, 2-Chloro-N-[3,5-dichloro-4-(6-methanesulfonyl-benzothiazol-2-yloxy)-phenyl]-4-trifluoromethyl-benzenesulfonamide] was tested. Which IC50 did it give?
Answer: < 1 µM

Question: With `CS(=O)(=O)Nc1ccc2nc(Oc3c(Cl)cc(NS(=O)(=O)c4ccc(C(F)(F)F)cc4Cl)cc3Cl)sc2c1` [Compound 440, 2-Chloro-N-[3,5-dichloro-4-(6-methanesulfonylamino-benzothiazol-2-yloxy)-phenyl]-4-trifluoromethyl-benzenesulfonamide] as the compound, how does the IC50 read?
Answer: < 1 µM

Question: Which IC50 does the source give for `O=S(=O)(Nc1cc(Cl)cc(Oc2nc3cc(-c4nnn[nH]4)ccc3s2)c1)c1ccc(C(F)(F)F)cc1Cl` [Compound 289, 2-Chloro-N-{3-chloro-5-[5-(1H-tetrazol-5-yl)-benzothiazol-2-yloxy]-phenyl}-4-trifluoromethyl-benzenesulfonamide] here?
Answer: < 1 µM

Question: Which IC50 does the source give for `O=S(=O)(Nc1cc(Cl)c(Nc2nc3ccc(Cl)cc3s2)c(Cl)c1)c1ccc(Cl)cc1Cl` [Compound 71] here?
Answer: < 1 µM

Question: For `Cc1ccc2nc(Nc3c(Cl)cc(NS(=O)(=O)c4ccc(C(F)(F)F)cc4Cl)cc3Cl)sc2c1` [Compound 86], which IC50 is on record?
Answer: < 1 µM

Question: For `O=S(=O)(Nc1cc(Cl)cc(Oc2nc3ccc(F)cc3s2)c1)c1ccc(Cl)cc1Cl` [Compound 305, 2,4-Dichloro-N-[3-chloro-5-(6-fluoro-benzothiazol-2-yloxy)-phenyl]-benzenesulfonamide], which IC50 is on record?
Answer: < 1 µM

Question: Which IC50 does the source give for `O=[N+]([O-])c1ccc2sc(Oc3c(Cl)cc(NS(=O)(=O)c4ccc(C(F)(F)F)cc4Cl)cc3Cl)nc2c1` [Compound 455, 2-Chloro-N-[3,5-dichloro-4-(5-nitro-benzothiazol-2-yloxy)phenyl]-4-trifluoromethyl-benzenesulfonamide] here?
Answer: 1 to 10 µM

Question: `O=S(=O)(Nc1cc(Cl)c(Cc2ccc3ccccc3n2)c(Cl)c1)c1ccc(C(F)(F)F)cc1Cl` [Compound 224, 2-Chloro-N-(3,5-dichloro-4-quinolin-2-ylmethyl-phenyl)-4-trifluoromethyl-benzenesulfonamide] was tested. Which IC50 did it give?
Answer: < 1 µM

Question: With `O=S(=O)(Nc1cc(Cl)cc(Oc2nc3c(Cl)cccc3s2)c1)c1ccc(C(F)(F)F)cc1Cl` [Compound 290, 2-Chloro-N-[3-chloro-5-(4-chloro-benzothiazol-2-yloxy)-phenyl]-4-trifluoromethyl-benzenesulfonamide] as the compound, how does the IC50 read?
Answer: 10 to 30 µM

Question: `O=S(=O)(Nc1cc(Cl)c(Oc2nc3ccc(Cl)cc3s2)c(Cl)c1)c1ccc(OC(F)(F)F)cc1` [Compound 434, N-[3,5-Dichloro-4-(6-chloro-benzothiazol-2-yloxy)-phenyl]-4-trifluoromethoxy-benzenesulfonamide] was tested. Which IC50 did it give?
Answer: 1 to 10 µM

Question: Which IC50 does the source give for `CS(=O)(=O)Nc1ccc2sc(Oc3c(Cl)cc(NS(=O)(=O)c4ccc(C(F)(F)F)cc4Cl)cc3Cl)nc2c1` [Compound 457, 2-Chloro-N-[3,5-dichloro-4-(5-methanesulfonylamino-benzothiazol-2-yloxy)-phenyl]-4-trifluoromethyl-benzenesulfonamide] here?
Answer: < 1 µM

Question: `N#Cc1ccc2sc(Oc3cc(Cl)cc(NS(=O)(=O)c4ccc(C(F)(F)F)cc4Cl)c3)nc2c1` [Compound 286, 2-Chloro-N-[3-chloro-5-(5-cyano-benzothiazol-2-yloxy)-phenyl]-4-trifluoromethyl-benzenesulfonamide] was tested. Which IC50 did it give?
Answer: 1 to 10 µM

Question: How did the IC50 turn out when `O=S(=O)(Nc1cc(Cl)cc(Oc2nc3ccc(Cl)cc3s2)c1)c1ccc(C(F)(F)F)cc1Cl` [Compound 302, 2-Chloro-N-[3-chloro-5-(6-chloro-benzothiazol-2-yloxy)-phenyl]-4-trifluoromethyl-benzenesulfonamide] was run?
Answer: < 1 µM

Question: For `COc1ccc2nc(Oc3cc(Cl)cc(NS(=O)(=O)c4ccc(C(F)(F)F)cc4Cl)c3)sc2c1` [Compound 307, 2-Chloro-N-[3-chloro-5-(6-methoxy-benzothiazol-2-yloxy)-phenyl]-4-trifluoromethyl-benzenesulfonamide], which IC50 is on record?
Answer: 1 to 10 µM

Question: `Cc1cc(S(=O)(=O)Nc2cc(Cl)c(Cc3ccc4ccccc4n3)c(Cl)c2)c(Cl)cc1Cl` [Compound 226, 2,4-Dichloro-N-(3,5-dichloro-4-quinolin-2-ylmethyl-phenyl)-5-methyl-benzenesulfonamide] was tested. Which IC50 did it give?
Answer: < 1 µM

Question: For `Cc1cc(S(=O)(=O)Nc2cc(Cl)c(Oc3nc4c(Cl)cccc4s3)c(Cl)c2)c(Cl)cc1Cl` [Compound 426, 2,4-Dichloro-N-[3,5-dichloro-4-(4-chloro-benzothiazol-2-yloxy)-phenyl]-5-methyl-benzenesulfonamide], which IC50 is on record?
Answer: < 1 µM

Question: Which IC50 does the source give for `O=S(=O)(Nc1cc(Cl)c(Sc2cnc3ccccc3c2)c(Cl)c1)c1ccc(Cl)cc1Cl` [Compound 4.1] here?
Answer: < 1 µM

Question: For `Cc1cccc2sc(Oc3ccc(NS(=O)(=O)c4ccc(C(F)(F)F)cc4Cl)cc3Cl)nc12` [Compound 504, 2-Chloro-N-[3-chloro-4-(4-methyl-benzothiazol-2-oxy)-phenyl]-4-trifluoromethylbenzenesulfonamide], which IC50 is on record?
Answer: 10 to 30 µM

Question: `Cc1cc(S(=O)(=O)Nc2cc(Cl)cc(Oc3nc4c(C)cccc4s3)c2)c(Cl)cc1Cl` [Compound 295, 2,4-Dichloro-N-[3-chloro-5-(4-methyl-benzothiazol-2-yloxy)-phenyl]-5-methyl-benzenesulfonamide] was tested. Which IC50 did it give?
Answer: 1 to 10 µM

Question: `CS(=O)(=O)Nc1ccc2nc(Oc3ccc(NS(=O)(=O)c4ccc(C(F)(F)F)cc4Cl)cc3Cl)sc2c1` [Compound 444, 2-Chloro-N-[3-chloro-4-(6-methanesulfonylamino-benzothiazol-2-yloxy)-phenyl]-4-trifluoromethyl-benzenesulfonamide] was tested. Which IC50 did it give?
Answer: < 1 µM

Question: Which IC50 does the source give for `O=S(=O)(Nc1cc(Cl)cc(Cc2nc3cc(Cl)ccc3s2)c1)c1ccc(Cl)cc1Cl` [Compound 332, 2,4-Dichloro-N-[3-chloro-5-(5-chloro-benzothiazol-2-ylmethyl)-phenyl]-benzenesulfonamide] here?
Answer: < 1 µM

Question: `O=S(=O)(Nc1cc(Cl)c(Oc2nc3c(Cl)cccc3s2)c(Cl)c1)c1ccc(C(F)(F)F)cc1Cl` [Compound 424, 2-Chloro-N-[3,5-dichloro-4-(4-chloro-benzothiazol-2-yloxy)-phenyl]-4-trifluoromethyl-benzenesulfonamide] was tested. Which IC50 did it give?
Answer: 1 to 10 µM

Question: How did the IC50 turn out when `Cc1ccc2nc(Oc3cc(Cl)cc(NS(=O)(=O)c4cc(C)c(Cl)cc4Cl)c3)sc2c1` [Compound 301, 2,4-Dichloro-N-[3-chloro-5-(6-methyl-benzothiazol-2-yloxy)-phenyl]-5-methyl-benzenesulfonamide] was run?
Answer: < 1 µM

Question: Which IC50 does the source give for `Cc1cc(S(=O)(=O)Nc2cc(Cl)cc(Oc3nc4c(Cl)cccc4s3)c2)c(Cl)cc1Cl` [Compound 292, 2,4-Dichloro-N-[3-chloro-5-(4-chloro-benzothiazol-2-yloxy)-phenyl]-5-methyl-benzenesulfonamide] here?
Answer: 1 to 10 µM

Question: For `O=S(=O)(Nc1cc(Cl)c(Cc2cnc3ccccc3c2)c(Cl)c1)c1ccc(C(F)(F)F)cc1Cl` [Compound 231, 2-Chloro-N-(3,5-dichloro-4-quinolin-3-ylmethyl-phenyl)-4-trifluoromethyl-benzenesulfonamide], which IC50 is on record?
Answer: < 1 µM

Question: For `Cc1cccc2sc(Oc3c(Cl)cc(NS(=O)(=O)c4ccc(C(F)(F)F)cc4Cl)cc3Cl)nc12` [Compound 505, 2-Chloro-N-[3,5-dichloro-4-(4-methyl-benzothiazol-2-oxy)-phenyl]-4-trifluoromethylbenzenesulfonamide], which IC50 is on record?
Answer: 10 to 30 µM
